{"source": "paper PMC4444023", "about": "(PLoS ONE, 2015)", "system": "rat primary cortical neurons", "test": "Lipid extraction and ceramide measurements (LC-MS/MS)", "format": "cell-based", "conditions": "rat primary neurons, TNF-α", "procedure": "Primary cortical neurons were prepared from embryonic day 18 Sprague-Dawley rats following previously described methods. […] A crude lipid extract from cortical neurons was obtained using a modified Bligh and Dyer procedure. Ceramide C12:0 (Avanti Polar Lipids) was included as an internal standard. The organic layers were dried in a nitrogen evaporator (Organomation Associates Inc.) and stored at -80°C. Dried organic layers were resuspended in methanol just prior to analysis. The detection and quantitation of individual ceramide species was performed on a high-performance liquid chromatography (HPLC) coupled electrospray ionization triple quadrupole mass spectrometer (API3000, AB Sciex Inc.) using settings similar to those described in previous studies. Samples were handled by a CTC PAL autosampler (LEAP Technologies Inc.) and injected into an HPLC (PerkinElmer) equipped with a reverse phase C18 column (Phenomex). […] The eluted sample was injected into the electrospray ionization source and detection of each ceramide species was conducted by multiple reaction monitoring. Spectral analysis was conducted using MultiQuant (AB Sciex Inc.), individually validated and normalized to the internal standard. Final data for each ceramide species in counts per second was expressed as the ratio of analyte/internal standard.", "note": "“Also recorded” adds a separate entry of the source."}
{"smiles": "O=c1[nH]c(=S)[nH]c(-c2ccccc2)c1Cc1c(O)ccc2ccccc12", "note": "[Cambinol, cambinol]", "values": [{"measurement": "effect on cytokine-induced increase of ceramide (words)", "result": "decreased"}, {"measurement": "effect on cytokine-induced increase of ceramide (words)", "setting": "listed as cambinol", "result": "dose dependently block; also recorded: blocked"}]}
